Reference: patent US10538442B2, “Water treatment” (priority 2015, dated 2020)

Experiments:
[1] = system: Enterobacter aerogenes; test: Log 10 reduction of viable count of facultative anaerobic bacterium in dosed suspension (serial dilution into anaerobic acid producing media vials); assay type: cell-based; conditions: for Log 10 Reduction Facultative Anaerobes: TDS 30,000 mg l^-1, 6 = complete kill; for effectiveness against aerobes (in words): short contact times, summary of Table 1, combination compared with chlorine dioxide alone
Experimental: (§1) A suspension of Desulfovibrio vulgaris plus Enterobacter aerogenes bacteria containing from 1×10^5 to 1×10^6 cells/mL was prepared in sterile pH 8 phosphate buffer containing sodium chloride to give the desired total dissolved solids (TDS) concentration. Aliquots of this suspension were dosed with the indicated concentrations of the compounds (a) and (b) with the concentrations being measured as ppm by weight of the stated composition in the dosed suspension. The mixtures were allowed to stand at room temperature. At the designated contact times, each mixture was sampled to determine the total number of viable cells of both Desulfovibrio vulgaris and Enterobacter aerogenes by serial 10-fold dilution into API RP 38 media vials and anaerobic acid producing media vials, respectively. The vials were incubated at 37° C. for 72 hours. Results were recorded as log10 reduction in the viable count versus the control.
(§2) Aqueous media inoculated with anaerobe and aerobe culture and having a TDS of 30,000 mg l^−1 was treated with treatment agents comprising: (i) tri n-butyl n-tetradecyl phosphonium chloride (TTPC); (ii) chlorine dioxide; or (ill) a combination of TTPC and chlorine dioxide.
(§3) TTPC was used in the form of Bellacide 350, an aqueous composition of TTPC and water consisting of water and 50% by weight of TTPC available from BWA Water Additives.
(§4) Chlorine dioxide was used in the form of CDG Solution 3000 a 0.3% aqueous solution of chlorine dioxide available from CDG Environmental, LLC.
(§5) The efficacy of the treatment agents was evaluated by measuring the Log 10 Reduction of the anaerobic bacterium Desulfovibrio vulgaris and the facultative anaerobic bacterium Enterobacter aerogenes after contact times of 10 minutes, 30 minutes and 60 minutes as detailed in Table 1. For TTPC the stated ppm value relates to the amount of TTPC added (active). For the chlorine dioxide the stated ppm relates to the amount of free residual of chlorine dioxide.

[2] = system: Desulfovibrio vulgaris; test: Log 10 reduction of viable count of anaerobic bacterium in dosed suspension (serial dilution into API RP 38 media vials); assay type: cell-based; conditions: for Log 10 Reduction Anaerobes: TDS 30,000 mg l^-1, 5 = complete kill; for effectiveness against anaerobes (in words): short contact times, summary of Table 1, combination compared with chlorine dioxide alone
Experimental: as §1, §2, §3, §4, §5

[3] = contact time 10 minutes, TTPC 3.125 ppm active
[4] = contact time 10 minutes, TTPC 6.25 ppm active
[5] = contact time 30 minutes, TTPC 3.125 ppm active
[6] = contact time 30 minutes, TTPC 6.25 ppm active
[7] = contact time 60 minutes, TTPC 3.125 ppm active
[8] = contact time 60 minutes, TTPC 6.25 ppm active
[9] = contact time 10 minutes, chlorine dioxide 0.25 ppm free residual
[10] = contact time 10 minutes, chlorine dioxide 0.5 ppm free residual
[11] = contact time 30 minutes, chlorine dioxide 0.25 ppm free residual
[12] = contact time 30 minutes, chlorine dioxide 0.5 ppm free residual
[13] = contact time 60 minutes, chlorine dioxide 0.25 ppm free residual
[14] = contact time 60 minutes, chlorine dioxide 0.5 ppm free residual

CCCCCCCCCCCCCC[P+](CCCC)(CCCC)CCCC.[Cl-] [TTPC, tri n-butyl n-tetradecyl phosphonium chloride]
Log 10 Reduction Facultative Anaerobes [1, 3]: 0
Log 10 Reduction Facultative Anaerobes [1, 4]: 0
Log 10 Reduction Facultative Anaerobes [1, 5]: 0
Log 10 Reduction Facultative Anaerobes [1, 6]: 1
Log 10 Reduction Facultative Anaerobes [1, 7]: 0
Log 10 Reduction Facultative Anaerobes [1, 8]: 1
effectiveness against aerobes (in words) [1]: ineffective
Log 10 Reduction Anaerobes [2, 3]: 0
Log 10 Reduction Anaerobes [2, 4]: 0
Log 10 Reduction Anaerobes [2, 5]: 0
Log 10 Reduction Anaerobes [2, 6]: 2
Log 10 Reduction Anaerobes [2, 7]: 0
Log 10 Reduction Anaerobes [2, 8]: 5
effectiveness against anaerobes (in words) [2]: ineffective

[O][Cl+][O-] [chlorine dioxide]
Log 10 Reduction Facultative Anaerobes [1, 9]: 3
Log 10 Reduction Facultative Anaerobes [1, 10]: 6
Log 10 Reduction Facultative Anaerobes [1, 11]: 3
Log 10 Reduction Facultative Anaerobes [1, 12]: 6
Log 10 Reduction Facultative Anaerobes [1, 13]: 3
Log 10 Reduction Facultative Anaerobes [1, 14]: 6
effectiveness against aerobes (in words) [1]: effective
Log 10 Reduction Anaerobes [2, 9]: 3
Log 10 Reduction Anaerobes [2, 10]: 4
Log 10 Reduction Anaerobes [2, 11]: 3
Log 10 Reduction Anaerobes [2, 12]: 5
Log 10 Reduction Anaerobes [2, 13]: 3
Log 10 Reduction Anaerobes [2, 14]: 5
effectiveness against anaerobes (in words) [2]: effective
